Data on three molecules can be found in patent US20230416329A1, “A PEPTIDE WITH DISULFIDE BONDS AND INHIBITORY ACTIVITY AGAINST SERINE PROTEASES, DERIVED HYBRID PEPTIDES THEREOF, AND USES THEREOF” (INSTITUTE OF MATERIA MEDICA , CHINESE ACADEMY OF MEDICAL …, priority 2020, published 2023).

One data set addresses chymotrypsin (Bos taurus, UniProt P00766). The experiment in a line: in vitro. The following applies: isolated enzyme chymotrypsin, pH 7.8, Remaining peak area (%)/chymotrypsin. A digest of the protocol: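 RP-HPLC peak area tracked intact peptide after 37 °C digestion with chymotrypsin (0.05 μg/μL solution, 5 min preincubation). Samples were withdrawn at 1.5-60.0 min and stopped with 10% TFA.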

The next data set concerns the target NEP24.11 (Homo sapiens, UniProt P08473). The experiment in a line: Tolerance of GLP-1 and its analogues to NEP24.11 (RP-HPLC remaining peak area). The following applies: peptide 30 μM, NEP24.11 1.0 ng/μL; for Remaining peak area (%)/NEP24.11: 0.0 h; for Remaining peak area (%)/NEP24.11 / remaining at 0.5 h, 30 μM / remaining at 2 h, 30 μM / remaining at 4 h, 30 μM / remaining at 8 h, 30 μM: 37° C.; for remaining at 0.5 h, 30 μM / remaining at 2 h, 30 μM / remaining at 4 h, 30 μM / remaining at 8 h, 30 μM: isolated NEP24.11 enzyme in buffer; for remaining at 0.5 h, 30 μM: pH 7.4, 0.5 h; for remaining at 2 h, 30 μM: pH 7.4, 2.0 h; for remaining at 4 h, 30 μM: pH 7.4, 4.0 h; for remaining at 8 h, 30 μM: pH 7.4, 8.0 h, read-out: Remaining peak area (%)/NEP24.11. The class given is in vitro ADME. Here is the method:
(§1) Mix by centrifugation at 8000 rpm for 30 seconds.
Arrange a certain volume of 0.04 μg/μL NEP24.11 enzyme solution in another sterile EP.

A further data set deals with T1, trypsin (Bos taurus, UniProt P00760).
T1 sequence (P00760 24-246): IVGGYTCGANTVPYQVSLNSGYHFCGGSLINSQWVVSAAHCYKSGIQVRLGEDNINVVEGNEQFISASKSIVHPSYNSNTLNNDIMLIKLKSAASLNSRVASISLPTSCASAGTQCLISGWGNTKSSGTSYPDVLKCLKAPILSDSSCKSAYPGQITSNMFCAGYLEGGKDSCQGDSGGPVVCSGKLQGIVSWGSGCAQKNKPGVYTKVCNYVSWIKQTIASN
The experiment in a line: in vitro. As to conditions: isolated enzyme trypsin, pH 7.8. A digest of the protocol: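 Remaining RP-HPLC peak area tracks undigested peptide over time. Samples were quenched with 10% TFA at time points between 1.5 and 60 min during 37 °C digestion. Trypsin was added from a 0.05 μg/μL solution after 5 min of thermal equilibration.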

A further data set concerns the target DPP-IV (Homo sapiens, UniProt P27487). The experiment in a line: Tolerance of GLP-1 and its analogues to DPP-IV (RP-HPLC remaining peak area). The class given is in vitro ADME. As to conditions: peptide 25 μM, DPP-IV 0.5 ng/μL, 37° C.; for Remaining peak area (%)/DPP-IV: 0.0 h; for remaining at 0.5 h, 25 μM / remaining at 2 h, 25 μM / remaining at 4 h, 25 μM / remaining at 8 h, 25 μM / remaining at 12 h, 25 μM: isolated DPP-IV enzyme in buffer, pH 8. Here is the method:
as §1
(2) Arrange a certain volume of 0.005 μg/μL DPP-IV solution in another sterile EP.

Sequence of DPP-IV (P27487 whole entry, species assumed): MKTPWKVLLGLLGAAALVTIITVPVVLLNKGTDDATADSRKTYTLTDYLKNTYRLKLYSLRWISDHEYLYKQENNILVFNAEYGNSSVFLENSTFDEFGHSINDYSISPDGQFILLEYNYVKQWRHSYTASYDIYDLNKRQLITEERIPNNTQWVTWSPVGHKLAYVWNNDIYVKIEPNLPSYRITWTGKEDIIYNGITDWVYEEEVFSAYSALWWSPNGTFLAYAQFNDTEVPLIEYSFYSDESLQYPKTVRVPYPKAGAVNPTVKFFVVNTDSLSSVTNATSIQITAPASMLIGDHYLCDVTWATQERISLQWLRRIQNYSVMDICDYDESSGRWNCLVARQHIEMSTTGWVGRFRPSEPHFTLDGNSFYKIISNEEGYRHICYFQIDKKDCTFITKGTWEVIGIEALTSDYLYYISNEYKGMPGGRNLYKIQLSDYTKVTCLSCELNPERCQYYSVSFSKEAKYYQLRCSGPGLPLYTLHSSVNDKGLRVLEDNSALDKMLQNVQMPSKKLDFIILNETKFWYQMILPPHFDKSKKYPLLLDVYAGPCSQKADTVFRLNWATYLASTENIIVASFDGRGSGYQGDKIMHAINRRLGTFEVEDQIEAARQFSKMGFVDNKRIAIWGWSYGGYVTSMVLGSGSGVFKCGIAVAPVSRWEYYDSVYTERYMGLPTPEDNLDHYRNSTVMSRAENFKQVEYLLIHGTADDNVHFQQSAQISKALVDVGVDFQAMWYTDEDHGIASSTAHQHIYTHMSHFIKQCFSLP
Sequence of NEP24.11 (P08473 whole entry): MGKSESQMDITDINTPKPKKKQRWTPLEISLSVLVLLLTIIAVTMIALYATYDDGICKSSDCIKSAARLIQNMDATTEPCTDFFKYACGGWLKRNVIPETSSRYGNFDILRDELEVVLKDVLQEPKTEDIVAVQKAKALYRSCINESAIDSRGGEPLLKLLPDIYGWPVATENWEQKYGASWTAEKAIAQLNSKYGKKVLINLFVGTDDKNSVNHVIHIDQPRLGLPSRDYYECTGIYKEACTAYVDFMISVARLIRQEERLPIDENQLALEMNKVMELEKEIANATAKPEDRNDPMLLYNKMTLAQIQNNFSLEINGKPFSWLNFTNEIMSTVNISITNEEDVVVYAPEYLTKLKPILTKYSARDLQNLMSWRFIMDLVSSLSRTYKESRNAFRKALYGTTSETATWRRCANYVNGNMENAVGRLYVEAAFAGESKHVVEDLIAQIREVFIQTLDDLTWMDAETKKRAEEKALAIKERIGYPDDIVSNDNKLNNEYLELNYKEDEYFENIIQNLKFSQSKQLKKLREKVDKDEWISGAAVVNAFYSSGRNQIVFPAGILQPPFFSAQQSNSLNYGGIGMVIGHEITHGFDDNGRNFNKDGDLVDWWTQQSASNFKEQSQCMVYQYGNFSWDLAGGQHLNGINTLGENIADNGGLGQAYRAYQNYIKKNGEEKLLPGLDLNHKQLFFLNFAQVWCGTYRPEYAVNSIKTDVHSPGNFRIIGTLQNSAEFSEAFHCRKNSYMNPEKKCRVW

`CC[C@H](C)[C@H](NC(=O)[C@H](Cc1ccccc1)NC(=O)[C@H](CCC(=O)O)NC(=O)[C@H](CCCCN)NC(=O)[C@H](C)NC(=O)[C@H](C)NC(=O)[C@H](CCC(N)=O)NC(=O)CNC(=O)[C@H](CCC(=O)O)NC(=O)[C@H](CC(C)C)NC(=O)[C@H](Cc1ccc(O)cc1)NC(=O)[C@H](CO)NC(=O)[C@H](CO)NC(=O)[C@@H](NC(=O)[C@H](CC(=O)O)NC(=O)[C@H](CO)NC(=O)[C@@H](NC(=O)[C@H](Cc1ccccc1)NC(=O)[C@@H](NC(=O)CNC(=O)[C@H](CCC(=O)O)NC(=O)[C@H](C)NC(=O)[C@H](Cc1c[nH]cn1)NC(=O)CNC(=O)CNC(=O)[C@H](CCCNC(=N)N)NC(=O)[C@H](CO)NC(=O)[C@H](Cc1ccccc1)NC(=O)[C@H](CCCNC(=N)N)NC(=O)[C@H](CCC(N)=O)NC(=O)CN)[C@@H](C)O)[C@@H](C)O)C(C)C)C(=O)N[C@@H](C)C(=O)N[C@@H](Cc1c[nH]c2ccccc12)C(=O)N[C@@H](CC(C)C)C(=O)N[C@H](C(=O)N[C@@H](CCCCN)C(=O)NCC(=O)N[C@@H](CCCNC(=N)N)C(=O)NCC(=O)NCC(=O)N[C@@H](CCCCN)C(=O)NCC(=O)N[C@H]1CSSC[C@@H](C(=O)N[C@@H](Cc2ccccc2)C(=O)O)NC(=O)[C@H]([C@@H](C)CC)NC(=O)[C@@H]2CCCN2C(=O)[C@@H]2CCCN2C(=O)[C@H]([C@@H](C)CC)NC(=O)[C@H](CO)NC(=O)[C@H](CCCCN)NC(=O)[C@H]([C@@H](C)O)NC(=O)[C@H](C)NC(=O)[C@H](CCCNC(=N)N)NC(=O)CNC1=O)C(C)C` [N-GLP-1-BT9]: at chymotrypsin, the remaining at 0.025 h, 60 μM was determined as 75.5 ± 5.3%; the remaining at 0.05 h, 60 μM came to 56.3 ± 2.1%; the remaining at 0.075 h, 60 μM stood at 47 ± 1.6%; the remaining at 0.1 h, 60 μM was determined as 38.1 ± 2.2%. Further, the remaining at 0.15 h, 60 μM on chymotrypsin was 24.2 ± 3%. Also, at NEP24.11, the “Remaining peak area (%)/NEP24.11” value was 100.0 ± 0.0%; the remaining at 0.5 h, 30 μM stood at 85.9 ± 2.8%; the remaining at 2 h, 30 μM was 74.9 ± 1.4%; the remaining at 4 h, 30 μM worked out at 66.8 ± 2.1%. The remaining at 8 h, 30 μM at NEP24.11 was found to be 52.7 ± 3.9%. Further, at trypsin, the remaining at 0.025 h, 60 μM is 105 ± 3%; the remaining at 0.05 h, 60 μM is 104 ± 2.8%; the remaining at 0.075 h, 60 μM is 102 ± 3%; the remaining at 0.1 h, 60 μM came to 104 ± 6.4%. Besides, at trypsin, the remaining at 0.15 h, 60 μM was 103 ± 3.5%; the remaining at 0.25 h, 60 μM amounted to 102 ± 4.9%; the remaining at 0.5 h, 60 μM was determined as 96.4 ± 9.9%; the remaining at 1 h, 60 μM is 86.3 ± 6.4%. For the same molecule, at DPP-IV, the “Remaining peak area (%)/DPP-IV” value was 100.0 ± 0.0%; the remaining at 0.5 h, 25 μM was 90 ± 3%; the remaining at 2 h, 25 μM came out at 89.5 ± 1.8%; the remaining at 4 h, 25 μM is 89.6 ± 3.6%. In addition, on DPP-IV, the remaining at 8 h, 25 μM stood at 89.2 ± 1% and the remaining at 12 h, 25 μM was 89.3 ± 7.5%.
As to `CC[C@H](C)[C@H](NC(=O)[C@H](Cc1ccccc1)NC(=O)[C@H](CCC(=O)O)NC(=O)[C@H](CCCCN)NC(=O)[C@H](C)NC(=O)[C@H](C)NC(=O)[C@H](CCC(N)=O)NC(=O)CNC(=O)[C@H](CCC(=O)O)NC(=O)[C@H](CC(C)C)NC(=O)[C@H](Cc1ccc(O)cc1)NC(=O)[C@H](CO)NC(=O)[C@H](CO)NC(=O)[C@@H](NC(=O)[C@H](CC(=O)O)NC(=O)[C@H](CO)NC(=O)[C@@H](NC(=O)[C@H](Cc1ccccc1)NC(=O)[C@@H](NC(=O)CNC(=O)[C@H](CCC(=O)O)NC(=O)[C@H](C)NC(=O)[C@H](Cc1c[nH]cn1)NC(=O)CNC(=O)CNC(=O)[C@H](CCCNC(=N)N)NC(=O)[C@H](CO)NC(=O)[C@H](Cc1ccccc1)NC(=O)[C@H](CCCNC(=N)N)NC(=O)[C@H](CCC(N)=O)NC(=O)CN)[C@@H](C)O)[C@@H](C)O)C(C)C)C(=O)N[C@@H](C)C(=O)N[C@@H](Cc1c[nH]c2ccccc12)C(=O)N[C@@H](CC(C)C)C(=O)N[C@H](C(=O)N[C@@H](CCCCN)C(=O)NCC(=O)N[C@@H](CCCNC(=N)N)C(=O)NCC(=O)NCC(=O)N[C@@H](CCCCN)C(=O)NCC(=O)N[C@@H](CCCNC(=N)N)C(=O)N[C@H]1CSSC[C@@H](C(=O)N[C@@H](Cc2ccccc2)C(=O)N2CCC[C@H]2C(=O)O)NC(=O)[C@H]([C@@H](C)CC)NC(=O)[C@@H]2CCCN2C(=O)[C@@H]2CCCN2C(=O)[C@H]([C@@H](C)CC)NC(=O)[C@H](CO)NC(=O)[C@H](CCCCN)NC(=O)[C@H]([C@@H](C)O)NC1=O)C(C)C` [N-GLP-1-BT1], at chymotrypsin, the remaining at 0.025 h, 60 μM worked out at 79.5 ± 4.9%; the remaining at 0.05 h, 60 μM was 71.8 ± 2.7%; the remaining at 0.075 h, 60 μM was 64.9 ± 1%; the remaining at 0.1 h, 60 μM amounted to 59.8 ± 2.9%. Besides, the remaining at 0.15 h, 60 μM at chymotrypsin worked out at 51.9 ± 1%. Besides, at NEP24.11, the “Remaining peak area (%)/NEP24.11” value is 100.0 ± 0.0%; the remaining at 0.5 h, 30 μM is 82.3 ± 8.3%; the remaining at 2 h, 30 μM is 80.3 ± 2%; the remaining at 4 h, 30 μM is 74.4 ± 9.1%. In addition, on NEP24.11, the remaining at 8 h, 30 μM came to 68.7 ± 8.4%. Also, at trypsin, the remaining at 0.025 h, 60 μM came out at 89.2 ± 3.7%; the remaining at 0.05 h, 60 μM was found to be 83.2 ± 2.3%; the remaining at 0.075 h, 60 μM amounted to 79.1 ± 1%; the remaining at 0.1 h, 60 μM was determined as 84.4 ± 3.4%. At trypsin, the remaining at 0.15 h, 60 μM came to 83.9 ± 0.5%; the remaining at 0.25 h, 60 μM was found to be 84.5 ± 4.9%; the remaining at 0.5 h, 60 μM is 83.7 ± 3%; the remaining at 1 h, 60 μM worked out at 83.5 ± 1.4%. Further, on DPP-IV, the “Remaining peak area (%)/DPP-IV” value is given as 100.0 ± 0.0%; the remaining at 0.5 h, 25 μM stood at 84 ± 0.1%; the remaining at 2 h, 25 μM amounted to 80.1 ± 0.9%; the remaining at 4 h, 25 μM worked out at 76 ± 1.6%. For the same molecule, at DPP-IV, the remaining at 8 h, 25 μM worked out at 74.1 ± 0.5% and the remaining at 12 h, 25 μM was found to be 72.1 ± 2%.
In the case of `CC[C@H](C)[C@H](NC(=O)[C@H](Cc1ccccc1)NC(=O)[C@H](CCC(=O)O)NC(=O)[C@H](CCCCN)NC(=O)[C@H](C)NC(=O)[C@H](C)NC(=O)[C@H](CCC(N)=O)NC(=O)CNC(=O)[C@H](CCC(=O)O)NC(=O)[C@H](CC(C)C)NC(=O)[C@H](Cc1ccc(O)cc1)NC(=O)[C@H](CO)NC(=O)[C@H](CO)NC(=O)[C@@H](NC(=O)[C@H](CC(=O)O)NC(=O)[C@H](CO)NC(=O)[C@@H](NC(=O)[C@H](Cc1ccccc1)NC(=O)[C@@H](NC(=O)CNC(=O)[C@H](CCC(=O)O)NC(=O)[C@H](C)NC(=O)[C@H](Cc1c[nH]cn1)NC(=O)CNC(=O)CNC(=O)[C@H](CCCNC(=N)N)NC(=O)[C@H](CO)NC(=O)[C@H](Cc1ccccc1)NC(=O)[C@H](CCCNC(=N)N)NC(=O)[C@H](CCC(N)=O)NC(=O)CNC(=O)CN)[C@@H](C)O)[C@@H](C)O)C(C)C)C(=O)N[C@@H](C)C(=O)N[C@@H](Cc1c[nH]c2ccccc12)C(=O)N[C@@H](CC(C)C)C(=O)N[C@H](C(=O)N[C@@H](CCCCN)C(=O)NCC(=O)N[C@@H](CCCNC(=N)N)C(=O)NCC(=O)NCC(=O)N[C@@H](CCCCN)C(=O)O)C(C)C` [N-GLP-1], at chymotrypsin, the remaining at 0.025 h, 60 μM came to 65.8 ± 2.6%; the remaining at 0.05 h, 60 μM turned out to be 69.3 ± 4%; the remaining at 0.075 h, 60 μM amounted to 66.2 ± 1.9%; the remaining at 0.1 h, 60 μM amounted to 60.9 ± 0.8%. Also, on chymotrypsin, the remaining at 0.15 h, 60 μM was 45.8 ± 5.4%. Also, at NEP24.11, the “Remaining peak area (%)/NEP24.11” value came to 100.0 ± 0.0%; the remaining at 0.5 h, 30 μM stood at 83.9 ± 2.8%; the remaining at 2 h, 30 μM was 54.9 ± 13.6%; the remaining at 4 h, 30 μM was 51 ± 6.5%. Also, at NEP24.11, the remaining at 8 h, 30 μM came to 56.4 ± 15.8%. For the same molecule, the “remaining amount after NEP24.11 hydrolysis” value at NEP24.11 (8 hours) was “about 56.4%”. Further, on trypsin, the remaining at 0.025 h, 60 μM was found to be 16.9 ± 1.6%; the remaining at 0.05 h, 60 μM was 3.7 ± 5.3%; the remaining at 0.075 h, 60 μM was found to be 1.2 ± 1.7%; the remaining at 0.1 h, 60 μM stood at 0%. The remaining at 0.15 h, 60 μM on trypsin is 0%. Besides, on DPP-IV, the “Remaining peak area (%)/DPP-IV” value is 100.0 ± 0.0%; the remaining at 0.5 h, 25 μM was determined as 73.9 ± 5%; the remaining at 2 h, 25 μM stood at 76.9 ± 3%; the remaining at 4 h, 25 μM was found to be 79.6 ± 2.3%. Besides, on DPP-IV, the remaining at 8 h, 25 μM is 74.9 ± 5.3% and the remaining at 12 h, 25 μM worked out at 74.6 ± 10.1%.
